Test results taken from patent EP4722195A1, “PH-SENSITIVE CATIONIC LIPID AND LIPID NANOPARTICLES” (National University Corporation Hokkaido University, priority 2023, dated 2024).

Assays:
[1] = test system: hEPO; test: hEPO in the serum of mice administered hEPO mRNA-loaded lipid nanoparticles (ELISA); format: in vivo; conditions: Example 29, Fig. 8, 6, 24, and 48 hours after administration, N = 3
Method: Subsequently, each hEPO mRNA-loaded lipid nanoparticle was administered to mice, and blood samples were collected from the tail vein at 6, 24, and 48 hours after administration (N = 3). The collected blood was allowed to stand at room temperature for 90 minutes, followed by centrifugation at 25°C, 1,000 x g for 15 minutes. The supernatant was collected to obtain serum. The hEPO activity in the serum was measured using a commercially available ELISA kit (Human EPO ELISA Kit, Invitrogen). Calibration samples were prepared by serial dilution from 100 mIU/mL to obtain solutions of […], each in a volume of 450 µL. Serum samples were diluted 10- to 10,000-fold to fall within the calibration range. A volume of 100 µL of each calibration sample and serum sample was applied to the plate, followed by the addition of […] of Biotin-Conjugate and incubation at 18 to 25°C for 1 hour. The wells were washed six times, and 100 µL of Streptavidin-HRP was added to each well and incubated at 18 to 25°C for 15 minutes. After another six washes, 100 µL of TMB Substrate Solution was added to each well, and the plate was shielded from light using aluminum foil and incubated at 18 to 25°C for 10 minutes. Finally, 100 µL of Stop Solution was added, and absorbance at 450 nm was measured using a spectrofluorometer (Varioskan Lux, Thermo Fisher Scientific).

[2] = Zeta potential of lipid nanoparticles; format: physicochemical
Method: The average particle size (number average value), ζ-average particle size, and polydispersity index (PdI) of the lipid nanoparticles in PBS(-) (pH 7.4), and the zeta potential in 10 mM HEPES buffer (pH 7.4) were measured using an analyzer "Zetasizer Nano ZS ZEN3600" (manufactured by Malvern) utilizing dynamic light scattering.

[3] = test system: transthyretin (TTR); test: TTR-targeted genome editing in mice, serum TTR (ELISA); format: in vivo, Balb/c mice; conditions: for TTR knockout activity: serum TTR one week after administration, N = 3
Method: Specifically, an RNA solution was first prepared to contain Cas9-mRNA (TriLink, SmoU-modified) and gRNA targeting transthyretin (TTR) at a mass ratio of 1:2 (N/P = 6.0). Using this RNA solution, in the same manner as Example 27, lipid nanoparticles encapsulating Cas9-mRNA and TTR-gRNA (SEQ ID NO: 1) and having a composition of TxT/DSPC/chol/PEG-DMG = 50/3/47/1.5 (mol%) were prepared (lipid nanoparticles for TTR-targeted genome editing). […]
Subsequently, each of the prepared lipid nanoparticles for TTR-targeted genome editing was administered via tail vein injection to female Balb/c mice (4 weeks old) at a dose of 1.5 mg Cas9 mRNA/kg. […] The collected blood was allowed to stand at room temperature for 1 hour, followed by centrifugation at 25°C, 1,000 × g for 15 minutes. The supernatant was collected to obtain serum. The TTR concentration in the serum was measured using a commercially available ELISA kit (Prealbumin ELISA Kit Mouse, Aviva Systems Biology). Calibration samples were prepared by serial dilution from 500 ng/mL to obtain solutions of 250, 125, 62.5, 31.25, and 15.63 ng/mL, each in a volume of 300 µL. Serum samples were diluted 10,000-fold. A volume of 100 µL of each calibration sample and serum sample was applied to the plate and incubated at 25°C for 30 minutes. The wells were washed four times, and 100 µL of Enzyme-Antibody Conjugate was added to each well. The plate was shielded from light using aluminum foil and incubated at 25°C for 20 minutes. After another four washes, 100 µL of TMB Substrate Solution (Aviva Systems Biology) was added to each well, and the plate was shielded from light using aluminum foil and incubated at 25°C for 10 minutes. Finally, 100 µL of Stop Solution (Aviva Systems Biology) was added, and absorbance at 450 nm was measured using a spectrofluorometer (Varioskan Lux, Thermo Fisher Scientific).
Subsequently, the lipid nanoparticles for TTR-targeted genome editing were administered to mice and serum TTR levels (µg/mL) were measured (N = 3) in the same manner as in Example 32, except that a dose of Cas9-mRNA was adjusted to 0.1, 0.3, and 1.0 mg/kg. In the figure, "NT" indicates the measurement result of serum from mice that were not administered lipid nanoparticles.

[4] = test system: spleen; test: Fluc activity in the spleen of mice administered Fluc mRNA-loaded lipid nanoparticles; format: in vivo, BALB/c mice; conditions: Example 22, Fig. 1; TxT/DSPC/chol/PEG-DMG=50/15/35/1.5 (mol%); 0.1 mg mRNA/kg intravenous; six hours after administration; comparison among TxT lipids
Method: (§1) Lipid nanoparticles were administered to mice by intravenous injection into the tail vein using a 27G needle. Unless otherwise specified, BALB/c mice (4 to 5 weeks old, female) were used.
(§2) First, BALB/c mice (female, 4 weeks old) were intravenously injected with lipid nanoparticles encapsulating Fluc mRNA (Fluc mRNA-loaded lipid nanoparticles) at a dose of 0.1 mg mRNA/kg. Six hours after intravenous injection, the mice were euthanized, each tissue was collected, frozen in liquid nitrogen, and stored at -80°C. The tissues were homogenized in passive lysis buffer (manufactured by Promega) using a bead-type cell disruptor (Micro Smash MS-100R, manufactured by TOMY Seiko). Tissue debris was removed by centrifugation, and the supernatant was collected. Fluc activity in the supernatant was measured using the Luciferase Assay System (E1500, manufactured by Promega) according to the manufacturer's protocol. Luminescence was measured using a luminometer (Luminescencer-PSN, manufactured by ATTO). Protein concentration was determined using a commercially available assay kit (BCA Protein Assay Kit, manufactured by Pierce). Fluc activity was expressed as relative light units (RLU) per mg of protein. […]

[5] = test system: various tissues; test: Fluc activity in various tissues of mice administered Fluc mRNA-loaded lipid nanoparticles; format: in vivo, BALB/c mice; conditions: Example 23, Figs. 2B to 2E; TxT-5-5A16/DSPC/chol/PEG-DMG=50/X/50-X/1.5 (mol%); 0.1 mg mRNA/kg; six hours
Method: as §1, §2

[6] = Table 1, Fluc mRNA-loaded lipid nanoparticles, TxT/DSPC/chol/PEG-DMG=50/15/35/1.5 (mol%)
[7] = Table 3, Fluc mRNA-loaded lipid nanoparticles, TxT/DSPC/chol/PEG-DMG=50/3/47/1.5 (mol%)
[8] = Table 5, EGFP mRNA-loaded lipid nanoparticles, TxT/DSPC/chol/PEG-DMG=50/3/47/1.5 (mol%), total flow rate 3.0 mL/min
[9] = Table 6 (Example 28), Fluc mRNA-loaded lipid nanoparticles, TxT/DSPC/chol/PEG-DMG=50/3/47/1.5 (mol%)
[10] = Table 7, hEPO mRNA-loaded lipid nanoparticles, TxT/DSPC/chol/PEG-DMG=50/3/47/1.5, SM-102/DSPC/chol/PEG-DMG=50/10/40/1.5 (mol%)
[11] = Table 8 (Example 32), lipid nanoparticles for TTR-targeted genome editing, Cas9-mRNA and TTR-gRNA 1:2 (N/P = 6.0), TxT/DSPC/chol/PEG-DMG = 50/3/47/1.5 (mol%)
[12] = Example 32, Fig. 11, 1.5 mg Cas9 mRNA/kg tail vein

ζ-potential [2, 6] | ζ-potential [2, 7] | ζ-potential [2, 8] | ζ-potential [2, 9] | ζ-potential [2, 10] | ζ-potential [2, 11] | ζ-potential ([2]; Table 4, Fluc mRNA-loaded lipid nanoparticles, TxT-5-5A14/DSPC/chol/PEG-DMG=50/3/47/1.5, SM-102, ALC-0315 or MC3/DSPC/chol/PEG-DMG=50/10/40/1.5 (mol%)) | ζ-potential ([2]; Table 9 (Example 33), lipid nanoparticles for TTR-targeted genome editing, Cas9-mRNA and TTR-gRNA 1:2 (N/P = 6.0), TxT-5-5A14/DSPC/chol/PEG-DMG = 50/3/47/1.5 (mol%)) | ζ-potential ([2]; Table 10 (Example 34), lipid nanoparticles for PCSK9-targeted genome editing, Cas9-mRNA and PCSK9-gRNA 1:2 (N/P = 6.0), TxT-5-5A14/DSPC/chol/PEG-DMG = 50/3/47/1.5 (mol%)) | ζ-potential ([2]; Table 2, Fluc mRNA-loaded lipid nanoparticles, TxT-5-5A16/DSPC/chol/PEG-DMG=50/X/50-X/1.5 (mol%), DSPC concentration 3 mol %) | ζ-potential ([2]; Table 2, Fluc mRNA-loaded lipid nanoparticles, TxT-5-5A16/DSPC/chol/PEG-DMG=50/X/50-X/1.5 (mol%), DSPC concentration 6 mol %) | ζ-potential ([2]; Table 2, Fluc mRNA-loaded lipid nanoparticles, TxT-5-5A16/DSPC/chol/PEG-DMG=50/X/50-X/1.5 (mol%), DSPC concentration 9 mol %) | ζ-potential ([2]; Table 2, Fluc mRNA-loaded lipid nanoparticles, TxT-5-5A16/DSPC/chol/PEG-DMG=50/X/50-X/1.5 (mol%), DSPC concentration 12 mol %) | ζ-potential ([2]; Table 2, Fluc mRNA-loaded lipid nanoparticles, TxT-5-5A16/DSPC/chol/PEG-DMG=50/X/50-X/1.5 (mol%), DSPC concentration 15 mol %) | SMILES | hEPO concentrations in serum compared to lipid nanoparticles comprising SM-102 [1] | TTR knockout activity [3, 12] | Fluc activity in the spleen [4] | TTR knockout efficiency versus dose ([3]; Example 33, Fig. 12, 0.1, 0.3, and 1.0 mg/kg) | TTR knockout activity ([3]; Example 33, Fig. 12, dose of 0.3 mg RNA/kg) | Effect of DSPC content on Fluc activity in the spleen, kidney, lung, and heart [5]
-6.0 mV | -5.6 mV | -7.8 mV | -8.4 mV | -3.0 mV | -3.8 mV | – | – | – | – | – | – | – | – | CCCCCCC(CCCC)CNC(=O)CCCC(=O)OCC(COC(=O)CCCC(=O)NCC(CCCC)CCCCCC)(COC(=O)CCCC(=O)NCC(CCCC)CCCCCC)NC(=O)CCN1CCCCC1 (stereo not drawn) [TxT-5-5A12β, 2-(((5-((2-butyloctyl)amino)-5-oxopentanoyl)oxy)methyl)-2-(3-(piperidin-1-yl)propanamido)propane-1,3-diyl bis(5-((2-butyloctyl)amino)-5-oxopentanoate)] | clearly higher hEPO concentrations | exceeding 85% | highest Fluc activity in the spleen | – | – | –
-3.4 mV | -7.5 mV | -13.0 mV | -6.4 mV | -1.4 mV | -5.5 mV | -8.9 mV | -4.0 mV | -1.6 mV | – | – | – | – | – | CCCCCCCN(CCCCCCC)C(=O)CCCC(=O)OCC(COC(=O)CCCC(=O)N(CCCCCCC)CCCCCCC)(COC(=O)CCCC(=O)N(CCCCCCC)CCCCCCC)NC(=O)CCN1CCCCC1 [TxT-5-5A14, 2-(((5-(diheptylamino)-5-oxopentanoyl)oxy)methyl)-2-(3-(piperidin-1-yl)propanamido)propane-1,3-diyl bis(5-(diheptylamino)-5-oxopentanoate)] | clearly higher hEPO concentrations | exceeding 85% | – | dose-dependent increase in TTR knockout efficiency | no less than 60% | –
-3.3 mV | -2.7 mV | -8.4 mV | – | – | – | – | – | – | -2.7 mV | -2.4 mV | -2.2 mV | -1.9 mV | -4.1 mV | CCCCCCCCN(CCCCCCCC)C(=O)CCCC(=O)OCC(COC(=O)CCCC(=O)N(CCCCCCCC)CCCCCCCC)(COC(=O)CCCC(=O)N(CCCCCCCC)CCCCCCCC)NC(=O)CCN1CCCCC1 [TxT-5-5A16, 2-(((5-(dioctylamino)-5-oxopentanoyl)oxy)methyl)-2-(3-(piperidin-1-yl)propanamido)propane-1,3-diyl bis(5-(dioctylamino)-5-oxopentanoate)] | – | – | – | – | – | no effect of DSPC content on Fluc activity was observed
